Test results reported in article PMC7576996, “Antiparasitic Behavior of Trifluoromethylated Pyrazole 2-Amino-1,3,4-thiadiazole Hybrids and Their Analogues: Synthesis and Structure-Activity Relationship” (Frontiers in Pharmacology, 2020).

Tests used:
[1] = Cytotoxicity assay in J774A1 macrophages (MTT, 48 h); type: cell-based; conditions: mouse, pH 7.2, J774A1, 50% inhibition of growth
Description: (§1) All the novel trifluoromethylated pyrazoles derivatives 2a–f, 3a–f, and 4a–f were evaluated against the promastigote form of L. amazonensis and the epimastigote form of T. cruzi. The results are reported as the concentration causing a 50% inhibition in cell growth (IC50). Additionally, the toxicity of compounds was evaluated against two different cell lines: epithelial cell LLCMK2 and macrophages J774A1. The antiproliferative and cytotoxic activities are shown in Table 2 , as well as the calculated selectivity index (SI).
(§2) 2.4. Antiproliferative activity […]
(§3) Cytotoxicity activity was determined in LLCMK2 (epithelial cells of kidney of Macaca
(§4) mulatta) cells and J774A1 macrophages. LLCMK2 (epithelial cells of kidney of Macaca mulatta) cells
(§5) were cultured in Dulbecco’s modified Eagle’s medium (DMEM, pH 7.2) supplemented with 10% FBS
(§6) at 37 °C in a 5% CO2 atmosphere. J774A1 macrophages were cultured in RPMI-1640 (pH 7.2) medium
(§7) supplemented with 10% FBS at 37 °C in a 5% CO2 atmosphere.
(§8) 2.4.2. Dilution of compounds
(§9) Stock solutions of the compounds were prepared in DMSO and then diluted in the respective
(§10) medium. The groups (controls and treated) were tested with DMSO concentrations below 1%, with
(§11) 2.4.3. Antiproliferative assay […]
(§12) 2.4.4. Cytotoxicity assay
(§13) LLCMK2 cells (2.5 × 10^5 cells/mL) suspension was prepared in DMEM medium supplemented
(§14) with 10% FBS and added to 96-well plates. Then, the plates were incubated at 37 °C in a
(§15) CO2 atmosphere for 24h to obtain confluent cell growth. After incubation, cells were treated or not
(§16) with different concentrations of compounds diluted in DMEM for 72 h. Macrophage (5 × 10^5 cells/mL)
(§17) suspension was prepared in RPMI-1640 medium supplemented with 10% FBS and added to 96-well
(§18) plates. Then, the plates were incubated at 37 °C in a CO2 atmosphere for 24h to obtain confluent cell
(§19) growth. After incubation, cells were treated or not with different concentrations of compounds diluted
(§20) in RPMI-1640 for 48h. After treatment, medium was removed and cells were incubated with MTT (2
(§21) mg/mL) for 4h. Then, DMSO was added for solubilization of the formazan and analyzed with a reading
(§22) microplate reader (BIO-TEK PowerWave XS spectrophotometer) at 392 nm. The percentage of viable
(§23) cells was calculated in relation to the control to determine the cytotoxic concentration to 50% of the […]

[2] = tested on: promastigote form of Leishmania amazonensis; experiment: Antiproliferative assay, promastigote form of Leishmania amazonensis (XTT, 72 h); type: cell-based; conditions: for SI L-M, selectivity index (Macrophages CC50/L. amazonensis IC50): J774A1 vs promastigotes; for SI L-E, selectivity index (Epithelial CC50/L. amazonensis IC50): LLCMK2 vs promastigotes; for IC50: Leishmania amazonensis, promastigote form, 72 h, mean ± standard deviation, read-out: L. amazonensis IC50
Description: as §1
(§24) 2.4. Antiproliferative activity
(§25) Promastigotes forms of Leishmania amazonensis (strain WHOM/ BR/75/JOSEFA) were
(§26) cultured in Warren medium (brain heart infusion, hemin, and folic acid; pH 7.4) supplemented with
(§27) 10% fetal bovine serum (FBS) at 25 °C. Epimastigote forms of Trypanosoma cruzi (Y strain) were
(§28) cultured in LIT medium (liver infusion tryptose; hemim, and folic acid; pH 7.4) supplemented with
as §3, §4, §5, §6, §7, §8, §9, §10
(§29) 2.4.3. Antiproliferative assay
(§30) Promastigote forms (1 × 10^6 parasites/mL) were cultured in 96-well plates in the presence and
(§31) absence of different concentrations of compounds diluted in Warren medium supplemented with 10%
(§32) FBS and incubated for 72h. Epimastigote forms (1 × 10^6 parasites/mL) were cultured in 96 -well plates
(§33) in the presence and absence of different concentrations of compounds diluted in LIT medium
(§34) supplemented with 10% FBS and incubated for 96h. After treatment, the parasites were incu bated with
(§35) a solution of 2,3 -bis (2 -methoxy -4-nitro -5-sulfophenyl) -2H-tetrazolium -5-carboxanilide (XTT; 0.5
(§36) mg/mL) and phenazine methanesulfonate activator (PMS; 0.06 mg/mL) in PBS for 4h. Then, the
(§37) absorbance was read in a microplate reader (Bio Tek - Power Wave XS) at 450 nm. The percentage of
(§38) viable parasites was calculated in relation to the control in order to determine the concentration that
(§39) inhibits 50% of the protozoa (IC 50).
as §12, §13, §14, §15, §16, §17, §18, §19, §20, §21

[3] = Cytotoxicity assay in LLCMK2 epithelial cells (MTT, 72 h); type: cell-based; conditions: Macaca mulatta, LLCMK2 kidney epithelial cells, pH 7.2, LLCMK2, 50% inhibition of growth
Description: as §1, §2, §3, §4, §5, §6, §7, §8, §9, §10, §11, §12, §13, §14, §15, §16, §17, §18, §19, §20, §21, §22, §23

[4] = tested on: epimastigote form of Trypanosoma cruzi; experiment: Antiproliferative assay, epimastigote form of Trypanosoma cruzi (XTT, 96 h); type: cell-based; conditions: for SI T-M, selectivity index (Macrophages CC50/T. cruzi IC50): J774A1 vs epimastigotes; for SI T-E, selectivity index (Epithelial CC50/T. cruzi IC50): LLCMK2 vs epimastigotes; for IC50: Trypanosoma cruzi, epimastigote form, 96 h, mean ± standard deviation, read-out: T. cruzi IC50
Description: as §1, §24, §25, §26, §27, §28, §3, §4, §5, §6, §7, §8, §9, §10, §29, §30, §31, §32, §33, §34, §35, §36, §37, §38, §39, §12, §13, §14, §15, §16, §17, §18, §19, §20, §21

| melting point | IC50 [4] | Structure (SMILES) | CC50 at 48 h [1] | SI L-M, selectivity index (Macrophages CC50/L. amazonensis IC50) [2] | SI L-E, selectivity index (Epithelial CC50/L. amazonensis IC50) [2] | IC50 [2] | CC50 at 72 h [3] | SI T-M, selectivity index (Macrophages CC50/T. cruzi IC50) [4] | SI T-E, selectivity index (Epithelial CC50/T. cruzi IC50) [4] |
| --- | --- | --- | --- | --- | --- | --- | --- | --- | --- |
| 226.5 °C | 45.7 ± 5 µM | NC(=S)NN=Cc1c(C(F)(F)F)nn(-c2ccccc2)c1-c1ccc([N+](=O)[O-])cc1 [2a, 4-[(2-carbamothioyl-hydrazinylidene)methyl]-3-trifluoromethyl-5-(4-nitrophenyl)-1-phenyl-1H-pyrazole] | 243 ± 3.6 µM | 9.10 | 11.33 | 26.7 ± 1.4 µM | 303 ± 5.8 µM | 5.32 | 6.62 |
| 221.18 °C | 69.3 ± 2.9 µM | NC(=S)NN=Cc1c(C(F)(F)F)nn(-c2ccccc2)c1-c1ccc(F)cc1 [2b, 4-[(2-carbamothioyl-hydrazinylidene)methyl]-3-trifluoromethyl-5-(4-fluorophenyl)-1-phenyl-1H-pyrazole] | 203 ± 5.9 µM | 4.09 | 6.97 | 49.6 ± 3.8 µM | 345.7 ± 2.6 µM | 2.92 | 4.99 |
| 225.37 °C | 49.2 ± 3.1 µM | NC(=S)NN=Cc1c(C(F)(F)F)nn(-c2ccccc2)c1-c1ccc(Cl)cc1 [2c, 4-[(2-carbamothioyl-hydrazinylidene)methyl]-5-(4-chlorophenyl)-3-trifluoromethyl-1-phenyl-1H-pyrazole] | 402 ± 8.3 µM | 9.02 | 8.45 | 44.6 ± 6.2 µM | 377 ± 5 µM | 8.17 | 7.66 |
| – | 30.3 ± 5.2 µM | NC(=S)NN=Cc1c(C(F)(F)F)nn(-c2ccccc2)c1-c1ccc(Br)cc1 [2d, 5-(4-bromophenyl)-4-[(2-carbamothioyl-hydrazinylidene)methyl]-3-trifluoromethyl-1-phenyl-1H-pyrazole] | 170 ± 7.2 µM | 8.98 | 7.85 | 18.9 ± 1.1 µM | 148 ± 6.9 µM | 5.60 | 4.89 |
| 211.27 °C | 83.1 ± 5.3 µM | NC(=S)NN=Cc1c(C(F)(F)F)nn(-c2ccccc2)c1-c1ccccc1 [2e, 4-[(2-carbamothioyl-hydrazinylidene)methyl]-3-trifluoromethyl-1,5-diphenyl-1H-pyrazole] | 400 ± 6.6 µM | 6.47 | 6.39 | 61.7 ± 2.9 µM | 394 ± 7.1 µM | 4.81 | 4.75 |
| 212.65 °C | 29.7 ± 2.6 µM | COc1ccc(-c2c(C=NNC(N)=S)c(C(F)(F)F)nn2-c2ccccc2)cc1 [2f, 4-[(2-carbamothioyl-hydrazinylidene)methyl]-3-trifluoromethyl-5-(4-methoxyphenyl)-1-phenyl-1H-pyrazole] | 180 ± 4.7 µM | 8.04 | 6.91 | 22.4 ± 3 µM | 155 ± 2.6 µM | 6.06 | 5.21 |
| 190.7 °C | 24.1 ± 0.8 µM | CSC(N)=NN=Cc1c(C(F)(F)F)nn(-c2ccccc2)c1-c1ccc([N+](=O)[O-])cc1 [3a] | 221 ± 3.1 µM | 12.10 | 9.64 | 18.3 ± 2.4 µM | 176 ± 5.9 µM | 9.19 | 7.32 |
